The values below are quoted from earlier work in patent publication US20250160636A1, “Mitigating Ocular Toxicity” (GlaxoSmithKline Intellectual Property Development Limited, priority 2022, published 2025).

Where two headings read alike, the source gives them in different places.

For this data set the following is noted: for Vision disorder: n = 255, photopsia.

With `CN(C)C/C=C/C(=O)Nc1cc2c(Nc3ccc(F)c(Cl)c3)ncnc2cc1O[C@H]1CCOC1` [Afatinib], the Conjunctivitis (n = 229) was 11%. Besides, for the setting “n = 3865 patients”, the Keratitis is recorded as 0.8%. In addition, the “grade III event” value (number of events, n = 3865 patients) is 1.

Take `CC(C)C[C@H](NC(=O)[C@H](Cc1ccccc1)NC(=O)c1cnccn1)B(O)O` [Bortezomib]: for the setting “case reports”, the “Case reports associated with” value was “Case reports associated with eyelid chalazia”. For the setting “label”, the “Label mentions (ocular toxicity issues)” value was “Label mentions diplopia, blurred vision, conjunctival infection, irritation”.

Turning to `Cc1cc(Nc2ncc(Cl)c(Nc3ccccc3S(=O)(=O)C(C)C)n2)c(OC(C)C)cc1C1CCNCC1` [Ceritinib], under “comprised of vision impairment, blurred vision, accommodation disorder, presbyopia, or reduced visual acuity”, the Vision disorder result is listed as “Vision disorder 9% (comprised of vision impairment, blurred vision, photopsia,”.

Take `C[C@@H](Oc1cc(-c2cnn(C3CCNCC3)c2)cnc1N)c1c(Cl)ccc(F)c1Cl` [Crizotinib]: the Vision disorder result (includes diplopia, photophobia, vision blurred, visual field defect, visual impairment, vitreous floaters, visual brightness, and visual acuity reduced) was “Vision disorder 64% (Includes diplopia, photopsia, photophobia, vision blurred,”.

On to `CC(C)(C)c1nc(-c2cccc(NS(=O)(=O)c3c(F)cccc3F)c2F)c(-c2ccnc(N)n2)s1` [Dabrafenib], for which, where the note is “in vivo”, the “Can cause (ocular toxicity issue)” value is recorded as “cystoid macula edema”. In addition, the Uveitis/Iritis (n = 586) is recorded as 1%.

For the compound `Cc1nc(Nc2ncc(C(=O)Nc3c(C)cccc3Cl)s2)cc(N2CCN(CCO)CC2)n1` [Dasatinib], for the setting “cohort not given”, the Conjunctivitis was 0.1-1%. For the same compound, the “Visual disorder (visual disturbance, vision blurred, decreased visual acuity) or dry eye” value (in vivo) is reported as 1-10%.

As for `C#Cc1cccc(Nc2ncnc3cc(OCCOC)c(OCCOC)cc23)c1` [Erlotinib], for the setting “n = 84”, the “Reported Conjunctivitis” value is given as 18%. Where the note is “n = 485”, the Conjunctivitis is listed as 12%. Under “n = 485”, the “Keratoconjunctivitis Sicca” value is “n = 485 and Keratoconjunctivitis Sicca 12% n = 485. Mentions of corneal”. For the same compound, the “Conjunctivitis Grade III” value (number of events, n = 485) is 1. In addition, the “pooled incidence of ocular disorders” value reads like this: (one pancreatic cancer study) 12.8%; (three lung cancer studies) 17.8%.

Turning to `COc1cc2ncnc(Nc3ccc(F)c(Cl)c3)c2cc1OCCCN1CCOCC1` [Gefitinib], the “Mentions of (ocular toxicity issues)” value (full list, wrapped over lines: eye irritation, eye pain, corneal erosion/ulcer, aberrant eyelash growth, corneal membrane sloughing, and ocular ischemia/hemorrhage) is on record as “Mentions of eye irritation, eye pain, corneal erosion/ulcer, aberrant eyelash”.

In the case of `Cc1cn(-c2cc(NC(=O)c3ccc(C)c(Nc4nccc(-c5cccnc5)n4)c3)cc(C(F)(F)F)c2)cn1` [Nilotinib], the “Frequency class of vision impairment, vision blurred, visual acuity reduced, photopsia, eye irritation” value (in vivo) is “Uncommon: vision impairment, vision blurred, visual acuity reduced, photopsia,”.

`CC(=O)Nc1cccc(-n2c(=O)n(C3CC3)c(=O)c3c(Nc4ccc(I)cc4F)n(C)c(=O)c(C)c32)c1` [Trametinib]: the “Incidence of Retinal Veinous Occlusion” value (4/1,749) is “halo. Incidence of Retinal Veinous Occlusion was 0.2% (4/1,749)”. Moreover, the “Incidence of Retinal Pigment Epithelial Detachment” value (14/1,749) was “Incidence of Retinal Pigment Epithelial Detachment was 0.8% (14/1,749)”. Also, for the setting “full list, wrapped over lines: blurry vision, dry eye, transient blindness, eye floaters, and visual halo”, the “Mentions (ocular toxicity issues)” value is “Mentions blurry vision, dry eye, transient blindness, eye floaters, and visual”.

`COc1cc2c(Nc3ccc(Br)cc3F)ncnc2cc1OCC1CCN(C)CC1` [Vandetanib]: the “Blurry vision (corneal opacities)” value (No cohort information) is “Blurry vision (corneal opacities) 9%. No cohort information”.

`CCCS(=O)(=O)Nc1ccc(F)c(C(=O)c2c[nH]c3ncc(-c4ccc(Cl)cc4)cc23)c1F` [Vemurafenib]: the “Mentions (ocular toxicity issues)” value (in vivo) was “Mentions retinal vein occlusion, uveitis, blurry vision, iritis, and photophobia”.

Regarding Panitimumab, for the setting “in 463 patients”, the Conjunctivitis is recorded as 4%; the Eye/eyelid irritation is 1%; the increased lacrimation entry is “increased lacrimation (2%), in 463 patients”; the ocular hyperemia was 3%.

For Pertuzumab, the “Mentions (ocular toxicity issues)” value (in vivo) is “Mentions increased lacrimation”.

In the case of Rituximab, the “Mentions (ocular toxicity issues)” value (in vivo) was “Mentions uveitis and optic neuritis”.
